Assays:
AZD4320 = compound: CN(CC[C@H](CSC1=CC=CC=C1)NC2=C(C=C(C=C2)S(=O)(=O)NC(=O)C3=CC=C(C=C3)N4CCC(CC4)[C@H](C5=CC=CC=C5C6=CC=C(C=C6)Cl)O)S(=O)(=O)C(F)(F)F)CCO [AZD4320]; details: max 1 µM
Summary of the method: (§1)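 Plates with 1536 wells received cancer cell lines in 7.5 μl of DMEM/F12 or RPMI containing 10% FBS. After 24 hours at 37°C and 5% CO2, cells were dosed for 72 hours with final DMSO typically 0.2%, and viability was read by CellTiter-Glo 2.0 luminescence scaled between blank-well and DMSO-well means. The single-agent IC50 was taken from a logistic fit of the dose responses made with a non-linear mixed effects model, that logistic curve having two parameters.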

Doxorubicin = compound: COc1cccc2c1C(=O)c1c(O)c3c(c(O)c1C2=O)C[C@@](O)(C(=O)CO)C[C@@H]3O[C@H]1C[C@H](N)[C@H](O)[C@H](C)O1 [Doxorubicin]; details: max 1 µM
Summary of the method: as §1

Gefitinib = compound: COc1cc2ncnc(Nc3ccc(F)c(Cl)c3)c2cc1OCCCN1CCOCC1 [Gefitinib]; details: max 10 µM
Summary of the method: as §1

Venetoclax = compound: CC1(C)CCC(CN2CCN(c3ccc(C(=O)NS(=O)(=O)c4ccc(NCC5CCOCC5)c([N+](=O)[O-])c4)c(Oc4cnc5[nH]ccc5c4)c3)CC2)=C(c2ccc(Cl)cc2)C1 [Venetoclax]; details: max 1 µM
Summary of the method: as §1

Dasatinib = compound: CC1=C(C(=CC=C1)Cl)NC(=O)C2=CN=C(S2)NC3=CC(=NC(=N3)C)N4CCN(CC4)CCO [Dasatinib]; details: max 2 µM
Summary of the method: as §1

Palbociclib = compound: CC(=O)c1c(C)c2cnc(Nc3ccc(N4CCNCC4)cn3)nc2n(C2CCCC2)c1=O [Palbociclib]; details: max 10 µM
Summary of the method: as §1

AZD5363 = compound: C1CN(CCC1(C(=O)N[C@@H](CCO)C2=CC=C(C=C2)Cl)N)C3=NC=NC4=C3C=CN4 [AZD5363]; details: max 10 µM
Summary of the method: as §1

Olaparib = compound: O=C(c1cc(Cc2n[nH]c(=O)c3ccccc23)ccc1F)N1CCN(C(=O)C2CC2)CC1 [Olaparib]; details: max 10 µM
Summary of the method: as §1

Taselisib = compound: Cc1nc(-c2cn3c(n2)-c2ccc(-c4cnn(C(C)(C)C(N)=O)c4)cc2OCC3)n(C(C)C)n1 [Taselisib]; details: max 10 µM
Summary of the method: as §1

Paclitaxel = compound: CC(=O)O[C@H]1C(=O)[C@@]2(C)[C@H]([C@H](OC(=O)c3ccccc3)[C@]3(O)C[C@H](OC(=O)[C@H](O)[C@@H](NC(=O)c4ccccc4)c4ccccc4)C(C)=C1C3(C)C)[C@]1(OC(C)=O)CO[C@@H]1C[C@@H]2O [Paclitaxel]; details: max 3 µM
Summary of the method: as §1

AZD0156 = compound: CN(C)CCCOc1ccc(-c2ccc3ncc4c(c3c2)n(C2CCOCC2)c(=O)n4C)cn1 [AZD0156]; details: max 3 µM
Summary of the method: as §1

AZD5991 = compound: Cc1c2c(nn1C)CSCc1cc(n(C)n1)CSc1cc(c3ccccc3c1)OCCCc1c(C(=O)O)n(C)c3c-2c(Cl)ccc13 [AZD5991]; details: max 1 µM
Summary of the method: as §1

Lapatinib = compound: CS(=O)(=O)CCNCc1ccc(-c2ccc3ncnc(Nc4ccc(OCc5cccc(F)c5)c(Cl)c4)c3c2)o1 [Lapatinib]; details: max 10 µM
Summary of the method: as §1

AZD6738 = compound: C[C@@H]1COCCN1C2=NC(=NC(=C2)C3(CC3)[S@](=N)(=O)C)C4=C5C=CNC5=NC=C4 [AZD6738]; details: max 10 µM
Summary of the method: as §1

AZD5153 = compound: COc1nnc2ccc(N3CCC(c4ccc(OCCN5CCN(C)C(=O)[C@H]5C)cc4)CC3)nn12 [AZD5153]; details: max 1 µM
Summary of the method: as §1

Carboplatin = compound: C1CC(C1)(C(=O)[O-])C(=O)[O-].N.N.[Pt+2] [Carboplatin]; details: max 10 µM
Summary of the method: as §1

MK-2206 = compound: NC1(c2ccc(-c3nc4ccn5c(=O)[nH]nc5c4cc3-c3ccccc3)cc2)CCC1 [MK-2206]; details: max 10 µM
Summary of the method: as §1

Etoposide = compound: COc1cc([C@@H]2c3cc4c(cc3[C@@H](O[C@@H]3O[C@@H]5CO[C@@H](C)O[C@H]5[C@H](O)[C@H]3O)[C@H]3COC(=O)[C@H]23)OCO4)cc(OC)c1O [Etoposide]; details: max 10 µM
Summary of the method: as §1

Trametinib = compound: CC(=O)Nc1cccc(-n2c(=O)n(C3CC3)c(=O)c3c(Nc4ccc(I)cc4F)n(C)c(=O)c(C)c32)c1 [Trametinib]; details: max 1 µM
Summary of the method: as §1

[1] = compound: O=C(Nc1ccc2[nH]nc(-c3ccncc3)c2c1)[C@@H]1CCN(CC(=O)N2CCN(c3ccc(-c4ncccn4)cc3)CC2)C1; details: max 5 µM
Summary of the method: as §1

Crizotinib = compound: C[C@@H](Oc1cc(-c2cnn(C3CCNCC3)c2)cnc1N)c1c(Cl)ccc(F)c1Cl [Crizotinib]; details: max 10 µM
Summary of the method: as §1

Savolitinib = compound: C[C@@H](c1ccc2nccn2c1)n1nnc2ncc(-c3cnn(C)c3)nc21 [Savolitinib]; details: max 1 µM
Summary of the method: as §1

AZD7648 = compound: Cc1cc2ncnn2cc1Nc1ncc2c(n1)n(C1CCOCC1)c(=O)n2C [AZD7648]; details: max 10 µM
Summary of the method: as §1

AZD8186 = compound: C[C@@H](Nc1cc(F)cc(F)c1)c1cc(C(=O)N(C)C)cc2c(=O)cc(N3CCOCC3)oc12 [AZD8186]; details: max 10 µM
Summary of the method: as §1

Prexasertib = compound: COc1cccc(OCCCN)c1-c1cc(Nc2cnc(C#N)cn2)n[nH]1 [Prexasertib]; details: max 1 µM
Summary of the method: as §1

Alisertib = compound: COc1cc(Nc2ncc3c(n2)-c2ccc(Cl)cc2C(c2c(F)cccc2OC)=NC3)ccc1C(=O)O [Alisertib]; details: max 10 µM
Summary of the method: as §1

5-Fluorouracil = compound: O=c1[nH]cc(F)c(=O)[nH]1 [5-Fluorouracil]; details: max 20 µM
Summary of the method: as §1

AZD1390 = compound: CC(C)n1c(=O)n(C)c2cnc3cc(F)c(-c4ccc(OCCCN5CCCCC5)nc4)cc3c21 [AZD1390]; details: max 0.3 µM
Summary of the method: as §1

AZD1775 = compound: C=CCn1c(=O)c2cnc(Nc3ccc(N4CCN(C)CC4)cc3)nc2n1-c1cccc(C(C)(C)O)n1 [AZD1775]; details: max 3 µM
Summary of the method: as §1

SN-38 = compound: CCc1c2c(nc3ccc(O)cc13)-c1cc3c(c(=O)n1C2)COC(=O)[C@]3(O)CC [SN-38]; details: max 0.3 µM
Summary of the method: as §1

AZD2811 = compound: CCN(CCO)CCCOc1ccc2c(Nc3cc(CC(=O)Nc4cccc(F)c4)[nH]n3)ncnc2c1 [AZD2811]; details: max 1 µM
Summary of the method: as §1

SRA737 = compound: N#Cc1cnc(Nc2cc(NC[C@H]3CNCCO3)c(C(F)(F)F)cn2)cn1 [SRA737]; details: max 10 µM
Summary of the method: as §1

Gemcitabine = compound: Nc1ccn([C@@H]2O[C@H](CO)[C@@H](O)C2(F)F)c(=O)n1 [Gemcitabine]; details: max 0.3 µM
Summary of the method: as §1

Selumetinib = compound: Cn1cnc2c(F)c(Nc3ccc(Br)cc3Cl)c(C(=O)NOCCO)cc21 [Selumetinib]; details: max 10 µM
Summary of the method: as §1

SG3199 = compound: CC1=CN2[C@@H](C1)C=NC3=CC(=C(C=C3C2=O)OC)OCCCCCOC4=C(C=C5C(=C4)N=C[C@@H]6CC(=CN6C5=O)C)OC [SG3199]; details: max 0.001 µM
Summary of the method: as §1

| Cell Line | IC50, cell viability 72 h (AZD4320) [nM] | IC50, cell viability 72 h (Doxorubicin) [nM] | IC50, cell viability 72 h (Gefitinib) [nM] | IC50, cell viability 72 h (Venetoclax) [nM] | IC50, cell viability 72 h (Dasatinib) [nM] | IC50, cell viability 72 h (Palbociclib) [nM] | IC50, cell viability 72 h (AZD5363) [nM] | IC50, cell viability 72 h (Olaparib) [nM] | IC50, cell viability 72 h (Taselisib) [nM] | IC50, cell viability 72 h (Paclitaxel) [nM] | IC50, cell viability 72 h (AZD0156) [nM] | IC50, cell viability 72 h (AZD5991) [nM] | IC50, cell viability 72 h (Lapatinib) [nM] | IC50, cell viability 72 h (AZD6738) [nM] | IC50, cell viability 72 h (AZD5153) [nM] | IC50, cell viability 72 h (Carboplatin) [nM] | IC50, cell viability 72 h (MK-2206) [nM] | IC50, cell viability 72 h (Etoposide) [nM] | IC50, cell viability 72 h (Trametinib) [nM] | IC50, cell viability 72 h [1] [nM] | IC50, cell viability 72 h (Crizotinib) [nM] | IC50, cell viability 72 h (Savolitinib) [nM] | IC50, cell viability 72 h (AZD7648) [nM] | IC50, cell viability 72 h (AZD8186) [nM] | IC50, cell viability 72 h (Prexasertib) [nM] | IC50, cell viability 72 h (Alisertib) [nM] | IC50, cell viability 72 h (5-Fluorouracil) [nM] | IC50, cell viability 72 h (AZD1390) [nM] | IC50, cell viability 72 h (AZD1775) [nM] | IC50, cell viability 72 h (SN-38) [nM] | IC50, cell viability 72 h (AZD2811) [nM] | IC50, cell viability 72 h (SRA737) [nM] | IC50, cell viability 72 h (Gemcitabine) [nM] | IC50, cell viability 72 h (Selumetinib) [nM] | IC50, cell viability 72 h (SG3199) [nM] |
| --- | --- | --- | --- | --- | --- | --- | --- | --- | --- | --- | --- | --- | --- | --- | --- | --- | --- | --- | --- | --- | --- | --- | --- | --- | --- | --- | --- | --- | --- | --- | --- | --- | --- | --- | --- |
| HOS (Osteosarcoma) | > 1000 | 792 | > 10000 | > 1000 | > 2000 | > 10000 | > 10000 | > 10000 | > 10000 | 97.2 | > 3000 | > 1000 | > 10000 | 8430 | 996 | > 10000 | > 10000 | 4340 | > 1000 | > 5000 | > 10000 | > 1000 | > 10000 | > 10000 | 53.6 | > 10000 | > 20000 | > 300 | 1030 | 29.4 | > 1000 | > 10000 | > 300 | > 10000 | > 1 |
| LB831-BLC (Bladder Carcinoma) | > 1000 | 821 | > 10000 | > 1000 | > 2000 | > 10000 | > 10000 | > 10000 | 5820 | 69.1 | > 3000 | > 1000 | > 10000 | > 10000 | > 1000 | > 10000 | > 10000 | > 10000 | > 1000 | > 5000 | > 10000 | > 1000 | > 10000 | > 10000 | > 1000 | > 10000 | > 20000 | > 300 | 2140 | 45.8 | > 1000 | > 10000 | 202 | > 10000 | > 1 |
| Ramos-2G6-4C10 (Burkitt's Lymphoma) | > 1000 | 684 | > 10000 | > 1000 | > 2000 | > 10000 | > 10000 | > 10000 | > 10000 | 15.9 | > 3000 | 168 | > 10000 | 3090 | 389 | > 10000 | 5610 | 9170 | > 1000 | > 5000 | > 10000 | > 1000 | > 10000 | > 10000 | 10.5 | > 10000 | > 20000 | > 300 | 307 | 78.3 | > 1000 | 3720 | > 300 | > 10000 | > 1 |
| CCRF-CEM (T-Lymphoblastic Leukemia) | 55.2 | 62.6 | > 10000 | > 1000 | > 2000 | 1950 | 7970 | > 10000 | 7250 | 4.87 | > 3000 | > 1000 | > 10000 | 992 | 523 | > 10000 | 3980 | 202 | > 1000 | > 5000 | 1550 | > 1000 | > 10000 | > 10000 | 3.26 | 73.7 | > 20000 | > 300 | 134 | 1.91 | 6.51 | 770 | 32.6 | > 10000 | > 1 |

From the supplement of paper PMC11061612
